# Tests used:
# Experiment in all cases: radiometric filter-binding kinase assay, Kinase HotSpot
# Conditions in all cases: compound 0.5 µM; ATP 10 µM
# [1] = target: TTK (human) (UniProt P33981)
# [2] = target: FGFR1 (human) (UniProt P11362)
# [3] = target: PRKX (human) (UniProt P51817)
# [4] = target: PRKCA (human) (UniProt P17252)
# [5] = target: BRSK2 (human) (UniProt Q8IWQ3)
# [6] = target: PRKACA (human) (UniProt P17612)
# [7] = target: PKN2 (human) (UniProt Q16513)
# [8] = target: WNK3 (human) (UniProt Q9BYP7)
# [9] = target: ALK (human) (UniProt Q9UM73)
# [10] = target: HCK (human) (UniProt P08631)
# [11] = target: EPHA3 (human) (UniProt P29320)
# [12] = target: IRAK1 (human) (UniProt P51617)
# [13] = target: ERBB4 (human) (UniProt Q15303)
# [14] = target: DYRK1A (human) (UniProt Q13627)
# [15] = target: CLK2 (human) (UniProt P49760)
# [16] = target: MAP3K7 TAB1 (human) (UniProt O43318+Q15750)
# [17] = target: MYLK (human) (UniProt Q15746)
# [18] = target: SIK2 (human) (UniProt Q9H0K1)
# [19] = target: MARK2 (human) (UniProt Q7KZI7)
# [20] = target: WNK2 (human) (UniProt Q9Y3S1)
# [21] = target: RPS6KA4 KD2 (human) (UniProt O75676)
# [22] = target: NEK4 (human) (UniProt P51957)
# [23] = target: RPS6KA6 KD1 KD2 (human) (UniProt Q9UK32)
# [24] = target: MLTK (human) (UniProt Q9NYL2)
# [25] = target: GSK3A (human) (UniProt P49840)
# [26] = target: CDK6 CCND3 (human) (UniProt P30281+Q00534)
# [27] = target: GRK6 (human) (UniProt P43250)
# [28] = target: FGFR2 (human) (UniProt P21802)
# [29] = target: FGFR3 (human) (UniProt P22607)
# [30] = target: DDR2 (human) (UniProt Q16832)
# [31] = target: PLK2 (human) (UniProt Q9NYY3)
# [32] = target: JAK2 JH1 JH2 (human) (UniProt O60674)
# [33] = target: CSNK2A1 (human) (UniProt P68400)
# [34] = target: SRPK1 (human) (UniProt Q96SB4)
# [35] = target: STK16 (human) (UniProt O75716)
# [36] = target: STK39 (human) (UniProt Q9UEW8)
# [37] = target: BLK (human) (UniProt P51451)
# [38] = target: DAPK2 (human) (UniProt Q9UIK4)
# [39] = target: CAMKK2 (human) (UniProt Q96RR4)
# [40] = target: ZAP70 (human) (UniProt P43403)
# [41] = target: LTK (human) (UniProt P29376)
# [42] = target: CSK (human) (UniProt P41240)
# Chain of FGFR3 (human) (P22607 whole entry, looked up): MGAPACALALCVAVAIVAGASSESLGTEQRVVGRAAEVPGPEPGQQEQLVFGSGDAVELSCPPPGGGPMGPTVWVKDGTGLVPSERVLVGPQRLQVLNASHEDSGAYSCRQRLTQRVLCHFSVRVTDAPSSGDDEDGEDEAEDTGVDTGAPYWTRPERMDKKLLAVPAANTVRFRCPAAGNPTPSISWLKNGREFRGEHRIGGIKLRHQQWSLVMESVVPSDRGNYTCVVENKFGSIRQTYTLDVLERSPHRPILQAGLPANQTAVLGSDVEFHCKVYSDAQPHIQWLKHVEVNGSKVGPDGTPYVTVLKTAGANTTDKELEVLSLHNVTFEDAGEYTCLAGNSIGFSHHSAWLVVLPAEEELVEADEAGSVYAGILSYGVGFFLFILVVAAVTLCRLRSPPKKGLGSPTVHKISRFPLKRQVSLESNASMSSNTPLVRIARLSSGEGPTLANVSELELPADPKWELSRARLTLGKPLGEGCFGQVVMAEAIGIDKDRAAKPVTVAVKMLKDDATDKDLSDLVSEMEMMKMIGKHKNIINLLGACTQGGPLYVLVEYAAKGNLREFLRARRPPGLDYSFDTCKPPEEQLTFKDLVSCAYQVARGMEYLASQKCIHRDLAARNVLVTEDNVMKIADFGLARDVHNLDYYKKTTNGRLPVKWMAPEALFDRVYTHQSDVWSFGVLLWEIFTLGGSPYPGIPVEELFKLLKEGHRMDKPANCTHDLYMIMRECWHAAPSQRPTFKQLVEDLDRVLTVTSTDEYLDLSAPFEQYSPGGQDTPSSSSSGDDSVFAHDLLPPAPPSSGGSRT
# Chain of CSNK2A1 (human) (P68400 whole entry, looked up): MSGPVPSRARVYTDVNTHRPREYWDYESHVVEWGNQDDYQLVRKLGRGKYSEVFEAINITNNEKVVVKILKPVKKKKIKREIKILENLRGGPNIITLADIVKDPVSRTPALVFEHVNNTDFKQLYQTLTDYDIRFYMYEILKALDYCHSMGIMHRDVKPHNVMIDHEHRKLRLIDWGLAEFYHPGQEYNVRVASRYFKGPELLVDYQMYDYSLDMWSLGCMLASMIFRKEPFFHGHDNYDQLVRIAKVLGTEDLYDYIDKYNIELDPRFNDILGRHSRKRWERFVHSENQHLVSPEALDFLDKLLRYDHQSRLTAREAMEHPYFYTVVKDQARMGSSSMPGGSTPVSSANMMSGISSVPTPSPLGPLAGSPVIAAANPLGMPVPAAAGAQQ
# Chain of ALK (human) (Q9UM73 whole entry, looked up): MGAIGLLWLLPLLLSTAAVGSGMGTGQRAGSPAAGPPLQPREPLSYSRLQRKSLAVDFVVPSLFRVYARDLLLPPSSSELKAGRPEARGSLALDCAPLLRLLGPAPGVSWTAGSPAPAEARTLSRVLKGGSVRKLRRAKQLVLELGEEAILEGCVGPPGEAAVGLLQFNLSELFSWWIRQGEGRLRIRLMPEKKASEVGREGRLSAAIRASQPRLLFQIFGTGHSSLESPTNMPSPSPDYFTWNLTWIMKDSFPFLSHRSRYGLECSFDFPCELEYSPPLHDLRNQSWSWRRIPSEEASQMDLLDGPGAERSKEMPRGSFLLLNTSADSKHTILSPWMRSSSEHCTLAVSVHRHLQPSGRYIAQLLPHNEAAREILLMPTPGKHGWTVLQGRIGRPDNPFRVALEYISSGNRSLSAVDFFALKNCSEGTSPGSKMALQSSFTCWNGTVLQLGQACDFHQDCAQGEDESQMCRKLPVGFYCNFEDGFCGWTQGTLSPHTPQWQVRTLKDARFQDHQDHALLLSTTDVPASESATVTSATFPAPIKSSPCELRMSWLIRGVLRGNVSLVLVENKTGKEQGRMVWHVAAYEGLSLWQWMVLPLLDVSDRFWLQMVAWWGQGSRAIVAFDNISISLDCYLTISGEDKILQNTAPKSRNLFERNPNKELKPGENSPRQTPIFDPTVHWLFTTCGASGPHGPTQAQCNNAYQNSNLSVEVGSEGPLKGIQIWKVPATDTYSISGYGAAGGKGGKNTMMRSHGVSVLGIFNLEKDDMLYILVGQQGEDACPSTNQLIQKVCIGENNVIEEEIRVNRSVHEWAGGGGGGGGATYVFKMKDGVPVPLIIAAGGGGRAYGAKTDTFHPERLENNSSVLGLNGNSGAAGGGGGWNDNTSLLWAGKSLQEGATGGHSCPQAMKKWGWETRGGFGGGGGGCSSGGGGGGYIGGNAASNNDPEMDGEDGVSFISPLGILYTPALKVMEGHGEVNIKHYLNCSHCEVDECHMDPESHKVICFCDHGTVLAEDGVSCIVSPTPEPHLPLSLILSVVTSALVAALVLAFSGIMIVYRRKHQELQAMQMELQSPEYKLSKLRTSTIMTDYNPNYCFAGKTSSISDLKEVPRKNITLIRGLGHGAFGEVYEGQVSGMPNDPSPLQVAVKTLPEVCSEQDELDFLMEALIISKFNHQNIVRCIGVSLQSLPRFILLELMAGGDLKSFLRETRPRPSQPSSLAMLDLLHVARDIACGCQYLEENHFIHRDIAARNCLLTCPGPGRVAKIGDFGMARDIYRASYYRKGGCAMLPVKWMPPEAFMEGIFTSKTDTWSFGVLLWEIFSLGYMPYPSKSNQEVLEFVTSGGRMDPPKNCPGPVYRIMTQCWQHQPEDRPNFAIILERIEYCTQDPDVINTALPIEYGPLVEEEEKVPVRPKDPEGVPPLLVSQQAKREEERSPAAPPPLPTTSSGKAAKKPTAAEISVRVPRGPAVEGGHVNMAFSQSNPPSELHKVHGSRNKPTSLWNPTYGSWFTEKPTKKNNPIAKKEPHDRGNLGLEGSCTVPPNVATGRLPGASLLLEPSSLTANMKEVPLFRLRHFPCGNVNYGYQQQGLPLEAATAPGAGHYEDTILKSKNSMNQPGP
# Chain of MLTK (human) (Q9NYL2 whole entry, looked up): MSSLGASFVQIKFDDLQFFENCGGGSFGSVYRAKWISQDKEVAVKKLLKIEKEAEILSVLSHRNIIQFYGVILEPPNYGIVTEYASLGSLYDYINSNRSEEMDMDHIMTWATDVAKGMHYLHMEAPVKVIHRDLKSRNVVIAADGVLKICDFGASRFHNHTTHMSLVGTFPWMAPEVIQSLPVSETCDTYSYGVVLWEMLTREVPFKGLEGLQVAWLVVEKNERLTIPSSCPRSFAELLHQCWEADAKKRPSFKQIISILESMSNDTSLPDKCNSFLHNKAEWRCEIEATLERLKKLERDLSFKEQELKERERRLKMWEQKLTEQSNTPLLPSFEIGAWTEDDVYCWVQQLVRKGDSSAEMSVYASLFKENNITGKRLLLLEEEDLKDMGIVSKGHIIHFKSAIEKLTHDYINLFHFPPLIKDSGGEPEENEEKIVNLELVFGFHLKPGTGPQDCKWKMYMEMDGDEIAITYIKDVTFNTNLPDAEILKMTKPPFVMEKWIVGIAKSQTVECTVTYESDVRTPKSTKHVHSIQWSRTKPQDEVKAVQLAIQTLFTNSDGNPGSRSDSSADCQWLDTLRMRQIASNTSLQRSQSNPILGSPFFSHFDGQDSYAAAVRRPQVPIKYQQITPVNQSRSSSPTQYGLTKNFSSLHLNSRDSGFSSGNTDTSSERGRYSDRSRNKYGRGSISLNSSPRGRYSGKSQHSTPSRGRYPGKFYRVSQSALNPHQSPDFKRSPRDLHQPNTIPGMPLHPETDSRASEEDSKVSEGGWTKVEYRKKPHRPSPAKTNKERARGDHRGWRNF
# Chain of HCK (human) (P08631 whole entry, looked up): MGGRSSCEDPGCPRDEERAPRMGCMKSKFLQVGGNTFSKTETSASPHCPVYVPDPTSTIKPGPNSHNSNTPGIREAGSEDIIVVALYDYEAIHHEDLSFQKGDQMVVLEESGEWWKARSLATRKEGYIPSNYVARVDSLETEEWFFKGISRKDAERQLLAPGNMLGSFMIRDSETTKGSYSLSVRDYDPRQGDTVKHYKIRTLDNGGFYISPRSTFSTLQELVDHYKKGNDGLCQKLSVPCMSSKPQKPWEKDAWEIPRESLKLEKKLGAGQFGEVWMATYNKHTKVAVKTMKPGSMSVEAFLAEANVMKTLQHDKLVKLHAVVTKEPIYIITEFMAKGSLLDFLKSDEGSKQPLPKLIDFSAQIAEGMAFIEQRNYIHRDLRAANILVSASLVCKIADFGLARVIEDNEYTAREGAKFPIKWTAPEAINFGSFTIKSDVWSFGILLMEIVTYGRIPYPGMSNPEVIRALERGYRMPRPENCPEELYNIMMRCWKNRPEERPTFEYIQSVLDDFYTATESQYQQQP
# Chain of BLK (human) (P51451 whole entry, looked up): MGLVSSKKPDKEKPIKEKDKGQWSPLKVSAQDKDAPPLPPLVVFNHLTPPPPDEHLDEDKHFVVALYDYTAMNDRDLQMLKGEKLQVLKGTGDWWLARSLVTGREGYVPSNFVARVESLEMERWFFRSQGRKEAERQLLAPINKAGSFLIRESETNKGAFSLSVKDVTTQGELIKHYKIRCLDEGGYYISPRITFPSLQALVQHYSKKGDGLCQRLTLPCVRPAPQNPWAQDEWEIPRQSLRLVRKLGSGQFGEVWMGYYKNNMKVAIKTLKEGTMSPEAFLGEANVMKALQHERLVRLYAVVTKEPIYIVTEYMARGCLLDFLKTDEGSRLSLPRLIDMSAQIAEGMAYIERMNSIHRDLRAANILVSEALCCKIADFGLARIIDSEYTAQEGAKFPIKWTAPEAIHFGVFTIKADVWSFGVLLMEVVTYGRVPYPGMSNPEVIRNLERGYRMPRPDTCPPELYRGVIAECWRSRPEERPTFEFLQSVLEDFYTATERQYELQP
# Chain of DAPK2 (human) (Q9UIK4 whole entry, looked up): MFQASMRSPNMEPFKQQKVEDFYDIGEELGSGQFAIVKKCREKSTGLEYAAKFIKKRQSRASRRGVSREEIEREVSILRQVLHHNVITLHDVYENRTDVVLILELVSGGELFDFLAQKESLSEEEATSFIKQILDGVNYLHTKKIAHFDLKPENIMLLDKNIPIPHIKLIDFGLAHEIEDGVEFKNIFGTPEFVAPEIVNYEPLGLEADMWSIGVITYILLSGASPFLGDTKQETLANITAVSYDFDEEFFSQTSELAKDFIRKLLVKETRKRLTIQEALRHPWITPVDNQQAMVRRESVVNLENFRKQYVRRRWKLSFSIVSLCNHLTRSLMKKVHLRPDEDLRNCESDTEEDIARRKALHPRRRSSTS
compound,measurement,setting,value
O=C(NC(NC(=S)Nc1ccc(F)c([N+](=O)[O-])c1)C(Cl)(Cl)Cl)C(c1ccccc1)c1ccccc1 (centres undefined),residual activity,[1],96.9%
same,residual activity,[2],97.7%
same,residual activity,[3],106%
same,residual activity,[4],73.1%
same,residual activity,[5],102%
same,residual activity,[6],102%
same,residual activity,[7],88.1%
same,residual activity,[8],108%
same,residual activity,[9],110%
same,residual activity,[10],107%
same,residual activity,[11],105%
same,residual activity,[12],107%
same,residual activity,[13],103%
same,residual activity,[14],99.8%
same,residual activity,[15],93.5%
same,residual activity,[16],89.7%
same,residual activity,[17],99.6%
same,residual activity,[18],112%
same,residual activity,[19],92.3%
same,residual activity,[20],117%
same,residual activity,[21],92.7%
same,residual activity,[22],87.8%
same,residual activity,[23],94.7%
same,residual activity,[24],98.6%
same,residual activity,[25],105%
same,residual activity,[26],99.3%
same,residual activity,[27],97.5%
same,residual activity,[28],97.7%
same,residual activity,[29],96.8%
same,residual activity,[30],96.4%
same,residual activity,[31],92.9%
same,residual activity,[32],99.9%
same,residual activity,[33],95.4%
same,residual activity,[34],99.3%
same,residual activity,[35],99.4%
same,residual activity,[36],77%
same,residual activity,[37],110%
same,residual activity,[38],103%
same,residual activity,[39],126%
same,residual activity,[40],94.2%
same,residual activity,[41],91.5%
same,residual activity,[42],99.3%
Nc1n[nH]c2nnc(-c3c(-c4ccccc4)nn4ccccc34)cc12,residual activity,[1],110%
same,residual activity,[2],94.7%
same,residual activity,[3],101%
same,residual activity,[4],87.2%
same,residual activity,[5],96.1%
same,residual activity,[6],97.7%
same,residual activity,[7],98.9%
same,residual activity,[8],101%
same,residual activity,[9],108%
same,residual activity,[10],91.1%
same,residual activity,[11],97.8%
same,residual activity,[12],105%
same,residual activity,[13],91.4%
same,residual activity,[14],102%
same,residual activity,[15],94.9%
same,residual activity,[16],101%
same,residual activity,[17],98.3%
same,residual activity,[18],93.6%
same,residual activity,[19],104%
same,residual activity,[20],111%
same,residual activity,[21],94.7%
same,residual activity,[22],88.4%
same,residual activity,[23],95.5%
same,residual activity,[24],101%
same,residual activity,[25],81.2%
same,residual activity,[26],90.4%
same,residual activity,[27],99.3%
same,residual activity,[28],102%
same,residual activity,[29],102%
same,residual activity,[30],101%
same,residual activity,[31],107%
same,residual activity,[32],97.1%
same,residual activity,[33],94.8%
same,residual activity,[34],83.7%
same,residual activity,[35],108%
same,residual activity,[36],89.1%
same,residual activity,[37],98.1%
same,residual activity,[38],103%
same,residual activity,[39],101%
same,residual activity,[40],90.1%
same,residual activity,[41],90.5%
same,residual activity,[42],98%

# Source: the kinase profiling compilation of Christmann-Franck et al. (2016)
